Data reported in patent US20250154212A1, “METHOD OF DISRUPTING MEMORY AND LIPOPEPTIDE FOR USE IN SUCH METHOD” (The Research Foundation for The State University of New York, priority 2023, published 2025).

What was measured:
[1] = system: contextual fear/threat memory in PKMζ-null mice; test: Contextual fear/threat conditioning, infusion into dorsal hippocampus, PKMζ-null mice; assay type: in vivo, mouse; settings: 10 nmol in 0.5 μl per hemisphere in hippocampus, tested 24 h post-infusion
Description: (§1) Mice were 8-10 weeks old at the time of cannulation and 9-11 weeks at the beginning of behavioral experiments. Mice were housed with cage-mates in plastic cages and provided with food and water ad libitum. Mice were maintained on a 12 h light/dark cycle (lights on at 7:00 am) and behavioral experiments began at 9:00 am.
(§2) Mice were injected intraperitoneally (1 ml/100 g body weight) with an anesthetic cocktail containing ketamine (10 mg/ml) and xylazine (2 mg/ml). Mice were provided with analgesic treatment prior to surgery (carprofen; 5 mg/ml). Guide cannulae (Plastics One, Roanoke, VA) were implanted bilaterally in the dorsal hippocampus (from bregma: AP-2.1 mm; L+/−1.8 mm; DV-1.2 mm) and secured to the skull with three jeweler's screws and dental cement. Antisedan (0.66 ml/100 g body weight of 0.5 mg drug/ml solution) was given via i.p. injection after surgery to reverse the anesthesia.
For 7 days following surgery, mice were handled by freely exploring the experimenter's palm for 2-5 min. Mice were trained and tested in the same conditioning box (Coulbourn Habitest, Coulboum Instruments), which consisted of a grid floor and blank walls. […] Freezing behavior (cessation of all movement except breathing) during the 4 min session was recorded by an experimenter blind to the conditions. […]

[2] = system: auditory-cued fear/threat memory in PKMζ-null mice; test: Auditory-cued fear/threat conditioning, infusion into basolateral amygdala, PKMζ-null mice; assay type: in vivo, mouse; settings: 6 nmol in 0.3 μL into each BLA, tested 1 day post-injection
Description: as §1, with “9-11 weeks old at the” for “9-11 weeks at the”
as §2, with “basolateral amygdala” for “dorsal hippocampus”, “AP-1.7” for “AP-2.1”, “L+/−3.0” for “L+/−1.8”, “DV-4.4” for “DV-1.2”
For 7 days following surgery, mice were handled by freely exploring the experimenter's palm for 2-5 min. Mice were habituated, trained, and tested in the same conditioning box (Coulbourn Habitest, Coulboum Instruments) with differing floors and walls to produce two different contexts (Context A and Context B). […] Freezing behavior (cessation of all movement except breathing) during the tone on Test 1 and Test 2 was scored by an experimenter blind to the conditions. […]

O=S(=O)(O)c1cc(O)c2c(S(=O)(=O)O)cc(S(=O)(=O)O)cc2c1 [ζ-stat, 1-naphthol-3,6,8-trisulphonic acid]
contextual fear/threat memory (% time freezing) [1]: has no effect
auditory-cued fear/threat memory retention (% time freezing to tone) [2]: not in PKMζ-null mice
